US11179361B2, “Methods of quantifying N2-(1-carboxyethyl)-2′-deoxy-guanosine (CEdG) and synthesis of oligonucleotides containing CEdG” (CITY OF HOPE, priority 2008, dated 2021)

Tests used:
[1] = test system: calf thymus DNA; experiment: Artifactual CEdG formation during DNA workup with carbonyl scavenger (calf thymus DNA)
Description: (§1) Calf thymus or tissue-extracted DNA (100 μg) was dissolved in 80 μL of autoclaved 18.2 MΩ H2O containing 20 μL of sodium acetate (100 mM, pH 5.5), 20 μL of 1×TBE, 1.5 μL of 50 mM ZnCl2, and 2.37 μL of a 100 mM AG or D-P stock solution. DNA was denatured at 95° C. for 5 min on a PCR heating block and then brought to 4° C. for 5 min. After equilibration to 45° C., 1.5 μL of 10 U/μL nuclease P1 was added. Alkaline phosphatase (4 μL of 8 U/μL), 1 U of bovine phosphodiesterase, and 14 μL of 100 mM CaCl2 were added after 1 hour, and the hydrolysis/dephosphorylation was continued for another 7 hours. DNA concentrations were determined by UV spectroscopy (1 OD260=50 μg/ml) and samples were stored at −80° C. prior to MS analyses. A 5 μL aliquot of digest was diluted to 200 μL and used for quantitation of 2′-deoxyguanosine by HPLC integration using a Beckman C18 reverse phase (25 cm×4.6 mm) column (Fullerton, Calif.). Separation was achieved isocratically using a mobile phase of 6% MeOH, 0.1% acetic acid in water.
Commercial grade calf thymus DNA was used as a model substrate for developing a protocol for CEdG quantitation in double-stranded DNA. […] Concentrations of AG from 0.5 to 50 mM were added prior to workup, and CEdG levels were measured in order to determine the optimal concentration required to achieve stable, reproducible levels. […]

[2] = test system: urinary CEdG; experiment: Urinary CEdG measurement in type 1 (streptozoticin) diabetic rats given LR-90; format: in vivo, Sprague-Dawley rats
Description: All animal studies were carried out in compliance with the policies outlined in NIH Publication No. 85-23 “Guide for the Care and Use of Laboratory Animals.” Male Sprague-Dawley rats were rendered diabetic by injection of streptozoticin and maintained as previously described.^18 AGE inhibitor LR-90 was administered ad libitum at concentrations ranging from 2.5-50 mg/L. Rats were housed in metabolic cages and urine was collected over a 24 hour period with several drops of toluene to inhibit microbial growth. Urine samples were stored at −80° C. prior to LC-MS/MS analysis for CEdG. The data in FIG. 5 represent 3 replicates from n different animals: non-diabetic controls, n=6; non-diabetic treated with 50 mg/L LR-90, n=5; diabetic control, n=3. For diabetic rats treated with varying doses of LR-90: 2.5 mg/L, n=4; 10 mg/L, n=5; 25 mg/L, n=6; 50 mg/L, n=8.
CEdG was concentrated from urine by solid phase extraction. A 1 ml strata-X-C cartridge was pre-conditioned by the sequential addition of 1 ml MeOH/CH3CN (1:1) followed by 2×1 ml 2% H3PO4. Then ^15N5-CEdG was added as an internal standard (final concentration 5 μg/ml), the sample was acidified with 10 μl of 86% H3PO4, and finally 0.4 mL of urine was introduced via suction filtration. The cartridge was then washed with sequential additions of 1 ml 0.1% H3PO4 and 1 ml MeOH and then dried under vacuum for 1 minute. Finally, CEdG/^15N5-CEdG containing fractions were eluted from the cartridge with 1 mL 3% NH4OH in MeOH:CH3CN (2:8 v/v). The eluent was evaporated to dryness in a centrifugal concentrator and reconstituted with 200 μl 0.1% formic acid prior to LC-MS/MS injection.
CEdG quantification was performed using LC-MS/MS. Measurement of 8-oxo-dG was performed as previously described.^19 CEdG and ^15N5-CEdG (internal standard) were synthesized and purified. Measurements were performed using an Agilent 1100 Capillary LC system (Agilent Technologies, Palo Alto, Calif.) in line with a Micromass Quattro Ultima Triple Quadrupole Mass Spectrometer (Micromass, Beverly, Mass.) operating in positive-ion mode. […] The mass transitions monitored for CEdG and ^15N5-CEdG were 340.3→224.3 and 345.4→229.4 respectively. […] The lower limit of quantitation for CEdG, defined as a peak height of ≥5× baseline noise, was 0.1 ng/ml in the starting solution or 0.2 pg on column.
A diabetic animal model was used to examine the relationship between glycemic status and CEdG levels. […] 8-oxo-dG was also measured as an indicator of oxidative stress in normal and diabetic rats; however, excreted 8-oxo-dG in diabetic animals was not statistically different (P>0.05) from controls.

[3] = test system: CEdG levels from tissue-extracted DNA; experiment: CEdG in tissue-extracted DNA from organs of Zucker fatty rats; format: in vivo, Zucker rat; settings: liver, pancreas and kidney, after LR-90 treatment
Description: as §1, with “Separation was achieved isocratically using a mobile phase of 6% MeOH, 0.1% acetic acid in water.” left out
The Zucker rat is a morbidly obese, hyperinsulinemic model for Type 2 diabetes resulting from homozygous knockout of the leptin receptor. In order to determine whether elevated circulating glucose in the Zucker rat correlates with increased tissue DNA glycation, CEdG levels from tissue-extracted DNA were measured in selected organs and compared to lean controls and to Zucker rats treated with the glycation inhibitor LR-90. […]

[4] = test system: DNA extracted from breast tumor or adjacent tissue; experiment: Artifactual CEdG formation during DNA isolation from human breast tumor and adjacent tissue with carbonyl scavenger; settings: 10 mM D-penicillamine in two aliquots during cell lysis/DNA isolation and hydrolysis/dephosphorylation
Description: Breast tumor and adjacent normal tissue were obtained from the frozen tumor bank of the City of Hope Pathology Core. A pea-sized section (˜100 mg) of tissue was minced and suspended in 1.2 mL of digestion buffer (100 mM NaCl, 10 mM Tris HCl, pH 8, 25 mM EDTA, pH 8, 0.5% SDS, 0.2 mg/mL proteinase K, 10 mM D-penicillamine) and incubated at 50° C. in a water bath for 12-18 h. DNA was then extracted using an equivalent volume of phenol/chloroform/isoamyl alcohol (25:24:1). The aqueous fraction was separated and 0.5 volumes of ammonium acetate and 2 volumes of 100% ethanol were added. The DNA was spooled, washed twice with 70% ethanol, pelleted, and resuspended in autoclaved 18.2 MΩ water. The enzymatic hydrolysis was carried out as described above.

[5] = Stability of CEdG to acid-catalyzed depurination and sidechain isomerization; settings: 37° C.; for racemization of the sidechain stereocenter / interconversion of isomers: acidic hydrolysis, 1 M AcOH
Description: (§2) A 1.25 mM solution of CEdG-A, B or dG in 100 μL of 1M AcOH (pH 2.4) was stirred at 37° C. Aliquots (10 μl) were removed periodically and added to 40 μL of 2M TEAA (pH 7.0). HPLC product analyses were performed using an Alltech HS HyperPrep 100 BDS C18 8μ column. A gradient of 0 to 4% CH3CN over 5 min was followed by 6.5% CH3CN over 30 min. TEAA (pH 7) was kept constant at 50 mM. The ratio of free base (CEGuanine or Guanine) to intact nucleoside (CEdG or dG) was calculated by integration of the corresponding HPLC peaks (see inset in FIG. 4).
(§3) Purified stereoisomers of synthetic CEdG were subjected to acidic conditions (1 M AcOH at 37° C.) and the extent of released free base and diastereomer interconversion was monitored by HPLC as a function of time.

[6] = physchem; settings: buffer, pH 2.4, half-life for depurination
Description: as §2, §3

## N=C(N)NN [AG, aminoguanidine]
[1]; 10 mM AG in two aliquots prior to mock lysis and hydrolysis/dephosphorylation, 80-100 CEdG/10^6 guanines without scavenger
  measured CEdG levels after mock proteolysis and hydrolysis with scavenger: drop in measured CEdG levels
[1]; 10 mM AG, hydrolysis/dephosphorylation only, 60-66 CEdG/10^6 dG without scavenger
  adduct levels after scavenger addition prior to sample processing: 45-50 CEdG/10^6 guanines

## CC(C)(Oc1ccc(NC(=O)Nc2ccc(Cc3ccc(NC(=O)Nc4ccc(OC(C)(C)C(=O)O)cc4)c(Cl)c3)cc2Cl)cc1)C(=O)O [LR-90]
[2]; diabetic rats, LR-90 25 mg/L
  adduct level in urine: comparable to that of non-diabetic animals
[2]; diabetic rats, LR-90 ad libitum 2.5 mg/L, 24 hr urine
  decrease in CEdG titer: 2.3 fold
[2]; diabetic rats, LR-90 ad libitum 2.5-50 mg/L, urine
  reduction in CEdG with increasing concentrations: dose dependent reduction in CEdG
[2]; non-diabetic rats, LR-90 at doses up to 50 mg/L
  effect on CEdG levels in normal controls: no significant effect
[3]
  change of CEdG levels in tissue DNA: net lowering of CEdG levels

## CC(C)(S)[C@@H](N)C(=O)O [D-penicillamine]
[4]
  artifactual CEdG formation: artifactual formation was inhibited

## CC(Nc1nc2c(ncn2[C@H]2C[C@H](O)[C@@H](CO)O2)c(=O)[nH]1)C(=O)O (single isomer, unassigned) [CEdG-B, N^2-(1-carboxyethyl)-2′-deoxyguanosine]
[5]; 1 M AcOH (pH 2.4), HPLC
  half-life for depurination: ~8.33 h
[5]
  racemization of the sidechain stereocenter / interconversion of isomers: no interconversion

## Nc1nc2c(ncn2[C@H]2C[C@H](O)[C@@H](CO)O2)c(=O)[nH]1 [dG, 2′-deoxyguanosine]
[6]
  half-life at 1.25 mM: 7.33 h

## CC(Nc1nc2c(ncn2[C@H]2C[C@H](O)[C@@H](CO)O2)c(=O)[nH]1)C(=O)O (single isomer, unassigned) [CEdG-A, N^2-(1-carboxyethyl)-2′-deoxyguanosine]
[5]; 1 M acetic acid solution, pH 2.4, half-life for depurination, 1 M AcOH (pH 2.4), HPLC
  half-life at 1.25 mM: ~12.5 h
[5]
  racemization of the sidechain stereocenter / interconversion of isomers: no interconversion
